Data: PubChem BioAssay AID330 (DTP/NCI, 2004)
Toxic doses and inconclusive results are not listed. The calls were made as follows: active = survival T/C of 150% or more; inactive = T/C below 125% in these data.

System: P388 leukemia ip, CD2F1 mice, survival T/C
Assay: NCI In Vivo Anticancer Drug Screen. Data for tumor model P388 Leukemia (intraperitoneal) in CD2F1 (CDF1) mice
Details: endpoint: median survival time, higher = longer survival
Method in brief: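 Mice carrying the transplanted tumor received test compound or vehicle. Survival was recorded in each group, and the value is the treated-group measurement divided by that of the vehicle-treated control group.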

[1] = dose: 50.0 mg/kg/injection, schedule: Q01DX009 (ip), vehicle: saline with Tween-80
[2] = dose: 100.0 mg/kg/injection, schedule: Q01DX009 (ip), vehicle: saline with Tween-80
[3] = dose: 60.0 mg/kg/injection, schedule: Q01DX005 (ip), vehicle: saline with Tween-80
[4] = dose: 120.0 mg/kg/injection, schedule: Q01DX005 (ip), vehicle: saline with Tween-80
[5] = dose: 240.0 mg/kg/injection, schedule: Q01DX005 (ip), vehicle: saline with Tween-80
[6] = dose: 50.0 mg/kg/injection, schedule: Q01DX005 (ip), vehicle: Klucel (hydroxypropylcellulose) (HPC)
[7] = dose: 100.0 mg/kg/injection, schedule: Q01DX005 (ip), vehicle: Klucel (hydroxypropylcellulose) (HPC)
[8] = dose: 200.0 mg/kg/injection, schedule: Q01DX005 (ip), vehicle: Klucel (hydroxypropylcellulose) (HPC)
[9] = dose: 50.0 mg/kg/injection, schedule: Q01DX005 (ip), vehicle: saline with Tween-80
[10] = dose: 100.0 mg/kg/injection, schedule: Q01DX005 (ip), vehicle: saline with Tween-80
[11] = dose: 200.0 mg/kg/injection, schedule: Q01DX005 (ip), vehicle: saline with Tween-80

Measured: T/C

CC(C)c1ccc(O)c(=O)cc1
inactive: dose: 25.0 mg/kg/injection, schedule: Q01DX009 (ip), vehicle: saline with Tween-80 99 % of control | [1] 102 % of control | [2] 114 % of control

CC1(C)CCCC(C)(C(=O)O)O1 (stereo not drawn)
inactive: [3] 104 % of control | [4] 101 % of control | [5] 104 % of control

COc1ccc2c(C)c3[n+](cc2c1OC)CCc1cc2c(cc1-3)OCO2
inactive: dose: 0.4 mg/kg/injection, schedule: Q01DX005 (ip), vehicle: saline 95 % of control | dose: 0.78 mg/kg/injection, schedule: Q04DX003 (ip), vehicle: water 102 % of control | dose: 0.8 mg/kg/injection, schedule: Q01DX005 (ip), vehicle: saline 101 % of control | dose: 1.56 mg/kg/injection, schedule: Q04DX003 (ip), vehicle: water 103 % of control | dose: 1.6 mg/kg/injection, schedule: Q01DX005 (ip), vehicle: saline 107 % of control | dose: 3.13 mg/kg/injection, schedule: Q04DX003 (ip), vehicle: water 106 % of control | dose: 6.25 mg/kg/injection, schedule: Q04DX003 (ip), vehicle: water 97 % of control | dose: 12.5 mg/kg/injection, schedule: Q04DX003 (ip), vehicle: water 97 % of control

Cc1nc2scc(-c3ccc(Cl)cc3)n2c(=O)c1CN1CCCCC1
inactive: dose: 50.0 mg/kg/injection, schedule: Q04DX002 (ip), vehicle: Klucel (hydroxypropylcellulose) (HPC) 97 % of control | dose: 100.0 mg/kg/injection, schedule: Q04DX002 (ip), vehicle: Klucel (hydroxypropylcellulose) (HPC) 95 % of control | dose: 200.0 mg/kg/injection, schedule: Q04DX002 (ip), vehicle: Klucel (hydroxypropylcellulose) (HPC) 97 % of control

CC1(C)CC(C)(C)C([Se]C2=C(O)C(=O)C(C)(C)CC2(C)C)=C(O)C1=O
inactive: [1] 100 % of control | [2] 101 % of control | dose: 200.0 mg/kg/injection, schedule: Q01DX009 (ip), vehicle: saline with Tween-80 94 % of control

Cc1nc(N)cc(=O)[nH]1
inactive: dose: 50.0 mg/kg/injection, schedule: Q01DX009 (ip), vehicle: suspension in saline 89 % of control | dose: 100.0 mg/kg/injection, schedule: Q01DX009 (ip), vehicle: suspension in saline 93 % of control | dose: 200.0 mg/kg/injection, schedule: Q01DX009 (ip), vehicle: suspension in saline 91 % of control | dose: 400.0 mg/kg/injection, schedule: Q01DX009 (ip), vehicle: suspension in saline 101 % of control

O=C(NN=c1c(=O)c2ccccc2c1=O)c1ccncc1
inactive: [3] 112 % of control | [4] 119 % of control | [5] 119 % of control

CCOC(=O)Nc1nc2ccccc2n1CN1CCCC1
inactive: dose: 25.0 mg/kg/injection, schedule: Q01DX005 (ip), vehicle: Klucel (hydroxypropylcellulose) (HPC) 112 % of control | [6] 111 % of control | [7] 114 % of control | [8] 117 % of control

Cc1cn(C23CC4CC(CC(C4)C2)C3)c(=O)[nH]c1=O
inactive: [6] 101 % of control | [7] 101 % of control | [8] 97 % of control

c1ccc2c(C3CCCN4CCCCC34)c[nH]c2c1 (stereo not drawn)
inactive: dose: 12.5 mg/kg/injection, schedule: Q04DX002 (ip), vehicle: saline with Tween-80 105 % of control | dose: 25.0 mg/kg/injection, schedule: Q04DX002 (ip), vehicle: saline with Tween-80 102 % of control | dose: 50.0 mg/kg/injection, schedule: Q04DX002 (ip), vehicle: saline with Tween-80 100 % of control

COc1nc2nc(Cl)cc(C)c2c2ccccc12 (tested in a mixture with another compound)
inactive: [9] 104 % of control | [10] 104 % of control | [11] 92 % of control

O=C(Oc1ccc(NC(=O)c2cc3c(cc2Br)OCO3)cc1)c1ccccc1
inactive: dose: 25.0 mg/kg/injection, schedule: Q01DX009 (ip), vehicle: other 104 % of control | dose: 50.0 mg/kg/injection, schedule: Q01DX009 (ip), vehicle: other 103 % of control | dose: 100.0 mg/kg/injection, schedule: Q01DX009 (ip), vehicle: other 89 % of control | dose: 200.0 mg/kg/injection, schedule: Q01DX009 (ip), vehicle: other 97 % of control | dose: 400.0 mg/kg/injection, schedule: Q01DX009 (ip), vehicle: other 95 % of control

CCOC(=O)CC1=CS/C(=C(/C#N)C(=O)OCC)S1
inactive: [9] 93 % of control | [10] 98 % of control | [11] 94 % of control
